Entries after “also recorded” stand apart in the source; their conditions may differ. Like-named read-outs stand apart in the source and are kept apart here.
Legend:
Alternaria alternata [1] = experiment: In vitro poisoned food technique against fungus (Ex. 20); assay type: cell-based
Alternaria alternata [2] = experiment: Alternaria leaf spot/blight on inoculated tomato plants (Ex. 28); assay type: in vivo; conditions: tomato plants, Alternaria alternata; after 7 days; dose 1 ml/gm/lit
tomato seedlings = experiment: Response of tomato plants, greenhouse growth (Ex. 30); assay type: in vivo; conditions: tomato seedlings, dose 1 ml/gm/lit; for Plant Height 5th Day / Stem Girth 5th Day / CCI 5th Day: 5th day after application; for Plant Height 10th Day / Stem Girth 10th Day / CCI 10th Day: 10th day after application; for Plant Height % Increase over pre on 10th Day / Stem Girth % Increase over pre on 10th Day / CCI % Increase over pre on 10th Day / Root Length (cm) 10th Day / Root Length % Increase over control: 10th day; for Root Length % Increase over control: vs water control
chili seedlings = experiment: Response of chili plants, greenhouse growth (Ex. 31); assay type: in vivo; conditions: chili seedlings, dose 1 ml/gm/lit; for CCI 5th Day / Plant Height (cm) 5th Day: 5th day after application; for CCI 10th Day / Plant Height (cm) 10th Day: 10th day after application; for CCI % Increase over pre on 10th Day / Plant Height % Increase over pre on 10th Day / Root Lenght (cm) 10th Day / Stem Girth % Increase over pre on 10th Day / Root Lenght % Increase over control: 10th day; for Root Lenght % Increase over control: vs water control
Aphid [3] = conditions: Dose 1 ml/gm/lit.; for Total No. of dead insect at 48 Hrs.: 10 insects/treatment, 4 replications, cotton leaves
Mite [4] = conditions: Dose 1 ml/gm/lit.; for Total No. of dead insect at 48 Hrs.: 10 insects/treatment, 4 replications, okra leaves
Mealy Bug [5] = conditions: Mealy Bug on cotton leaves, dose 1 ml/gm/lit., 48 Hrs.; for Total No. of dead insect at 48 Hrs.: 10 insects/treatment, 4 replications; for % Corrected Mortality at 48 Hrs.: corrected for water control
Helicoverpa armigera [6] = conditions: Helicoverpa armigera on okra fruits, dose 1 ml/gm/lit., 72 Hrs.; for Total No. of dead insect at 72 Hrs.: 10 insects/treatment, 4 replications; for % Corrected Mortality at 72 Hrs.: corrected for water control
Spodoptera litura [7] = conditions: Spodoptera litura on castor leaves; dose 1 ml/gm/lit.; 10 insects/treatment; 72 hrs after application
Thrips [8] = conditions: Thrips on cotton leaves; dose 1 ml/gm/lit.; 10 insects/treatment; 48 hrs after application
Aphid [9] = conditions: Aphids on cotton plants, green house; dose 1 ml/gm/lit.; 10 insects/plant, 10 plants/treatment; 48 hrs
Mite [10] = conditions: mite on okra plants, green house, dose 1 ml/gm/lit. spray; for % Mortality at 48 Hrs. / Total No. of dead insect at 48 Hrs.: 48 hrs after application; for % Corrected Mortality at 48 Hrs.: corrected for water control
Mealy Bug [11] = conditions: mealy bug on cotton plants, green house, dose 1 ml/gm/lit. spray; for % Mortality at 48 Hrs. / Total No. of dead insect at 48 Hrs.: 48 hrs after application; for % Corrected Mortality at 48 Hrs.: corrected for water control
Helicoverpa armigera [12] = conditions: Helicoverpa armigera 3rd instar on chickpea plants, dose 1 ml/gm/lit. spray; for % Mortality at 72 Hrs.: 72 hrs after application; for % Corrected Mortality at 72 Hrs.: corrected for water control
Spodoptera litura [13] = conditions: Spodoptera litura 3rd instar on cabbage plants, dose 1 ml/gm/lit. spray; for % Mortality at 72 Hrs.: 72 hrs after application; for % Corrected Mortality at 72 Hrs.: corrected for water control
Thrips [14] = conditions: thrips on cotton plants, greenhouse, dose 1 ml/gm/lit. spray; for % Corrected Mortality at 48 Hrs.: corrected for water control
[15] = cited from earlier work
Spodoptera litura [16] = experiment: whole plant or invertebrate; conditions: 72 h
Thrips [17] = experiment: whole plant or invertebrate; conditions: in Gossypium hirsutum, 48 h
Aphid [18] = experiment: whole plant or invertebrate; conditions: 48 h
[19] = poisoned food technique, PDA medium, dose 1 ml/gm/lit., after seven days
[20] = Table 13, descriptive, no test described
[21] = read-out: % Corrected Mortality at 72 Hrs.
[22] = read-out: % Mortality at 72 Hrs.
[23] = read-out: % Corrected Mortality at 48 Hrs.
[24] = read-out: % Mortality at 48 Hrs.

## C/C=C\c1cc(OC)c(OC)cc1OC [β-Asarone]
Alternaria alternata [1]; […]
  inhibition of growth at 1 mL or g/L: 54%
Alternaria alternata [1]; [19]
  Mean colony Diameter (mm): 40.50 mm
Alternaria alternata [2]
  % Disease reduction over Control: 64.46%
Tomato seedlings
  Plant Height 5th Day: 6.72 cm
  Stem Girth 5th Day: 1.72 mm
  Plant Height 10th Day: 7.24 cm
  Stem Girth 10th Day: 2.45 mm
  Plant Height % Increase over pre on 10th Day: 27.69%
  Stem Girth % Increase over pre on 10th Day: 56.32%
  CCI 5th Day: 13.45
  CCI % Increase over pre on 10th Day: 29.08%
  Root Length (cm) 10th Day: 4.43 cm
  CCI 10th Day: 14.56
  Root Length % Increase over control: 33.31%
Chili seedlings
  CCI 5th Day: 9.58
  Plant Height (cm) 5th Day: 5.70 cm
  CCI % Increase over pre on 10th Day: 40.02%
  Plant Height % Increase over pre on 10th Day: 51.59%
  Root Lenght (cm) 10th Day: 3.17 cm
  Stem Girth % Increase over pre on 10th Day: 40.46%
  CCI 10th Day: 12.49
  Plant Height (cm) 10th Day: 7.61 cm
  Root Lenght % Increase over control: 16.00%
Aphid [3]
  Total No. of dead insect at 48 Hrs.: 7.25
  % Corrected Mortality at 48 Hrs.: 68.57%
  % Mortality at 48 Hrs.: 72.50%
Mite [4]
  Total No. of dead insect at 48 Hrs.: 2.50
  % Corrected Mortality at 48 Hrs.: 18.92%
  % Mortality at 48 Hrs.: 25.00%
Mealy Bug [5]
  Total No. of dead insect at 48 Hrs.: 3.00
  % Mortality at 48 Hrs.: 30.00%
  % Corrected Mortality at 48 Hrs.: 26.32%
Helicoverpa armigera [6]
  Total No. of dead insect at 72 Hrs.: 5.00
  % Mortality at 72 Hrs.: 50.00%
  % Corrected Mortality at 72 Hrs.: 50.00%
Spodoptera litura [7]
  Total No. of dead insect at 72 Hrs.: 6.00
Thrips [8]
  Total No. of dead insect at 48 Hrs.: 6.75
Aphid [9]
  Total No. of dead insect at 48 Hrs.: 70.00
Mite [10]
  % Mortality at 48 Hrs.: 22.50%
  Total No. of dead insect at 48 Hrs.: 22.50
  % Corrected Mortality at 48 Hrs.: 18.42%
Mealy Bug [11]
  % Mortality at 48 Hrs.: 35.00%
  Total No. of dead insect at 48 Hrs.: 35.00
  % Corrected Mortality at 48 Hrs.: 27.78%
Helicoverpa armigera [12]
  % Mortality at 72 Hrs.: 52.50%
  % Corrected Mortality at 72 Hrs.: 52.50%
Spodoptera litura [13]
  % Mortality at 72 Hrs.: 55.00%
  % Corrected Mortality at 72 Hrs.: 52.63%
Thrips [14]; 48 hrs after application
  % Mortality at 48 Hrs.: 65.00%
  Total No. of dead insect at 48 Hrs.: 65.00
Thrips [14]
  % Corrected Mortality at 48 Hrs.: 61.11%
[15]; [20]
  Antifungal Activity - Mode of action: Completely inhibited
  Insecticidal Activities - Mode of action: Reductions in oviposition
  Nematicidal Activity - Mode of action: Act as potent nematicide
Spodoptera litura [16]; [21]
  mortality at 1 mL or g/L: 57.9%
Spodoptera litura [16]; [22]
  mortality at 1 mL or g/L: 60%
Thrips [17]; [23]
  mortality at 1 mL or g/L: 62.9%
Thrips [17]; [24]
  mortality at 1 mL or g/L: 67.5%
Aphid [18]; [23]
  mortality at 1 mL or g/L: 64.7%
Aphid [18]; [24]
  mortality at 1 mL or g/L: 70%

## CC1=CCC2CC1C2(C)C (stereo not drawn) [Alpha-pinene]
Alternaria alternata [1]; [19]
  Mean colony Diameter (mm): 71.50 mm
Alternaria alternata [1]; poisoned food technique, PDA medium, dose 1 ml/gm/lit., after seven days, vs untreated control, read-out: % Inhibition of growth
  inhibition of growth at 1 mL or g/L: 18.8%
Alternaria alternata [2]
  % Disease reduction over Control: 42.15%
Tomato seedlings
  Plant Height 5th Day: 7.24 cm
  Stem Girth 5th Day: 2.01 mm
  Plant Height 10th Day: 7.74 cm
  Stem Girth 10th Day: 2.22 mm
  Plant Height % Increase over pre on 10th Day: 26.47%
  Stem Girth % Increase over pre on 10th Day: 55.24%
  CCI 5th Day: 13.65
  CCI % Increase over pre on 10th Day: 25.17%
  Root Length (cm) 10th Day: 4.30 cm
  CCI 10th Day: 14.32
  Root Length % Increase over control: 29.14%
Chili seedlings
  CCI 5th Day: 11.40
  Plant Height (cm) 5th Day: 6.35 cm
  CCI % Increase over pre on 10th Day: 36.59%
  Plant Height % Increase over pre on 10th Day: 51.74%
  Root Lenght (cm) 10th Day: 3.23 cm
  Stem Girth % Increase over pre on 10th Day: 41.80%
  CCI 10th Day: 12.58
  Plant Height (cm) 10th Day: 6.54 cm
  Root Lenght % Increase over control: 17.88%
Aphid [3]
  Total No. of dead insect at 48 Hrs.: 5.75
  % Corrected Mortality at 48 Hrs.: 51.43%
  % Mortality at 48 Hrs.: 57.50%
Mite [4]
  Total No. of dead insect at 48 Hrs.: 4.00
  % Corrected Mortality at 48 Hrs.: 35.14%
  % Mortality at 48 Hrs.: 40.00%
Mealy Bug [5]
  Total No. of dead insect at 48 Hrs.: 5.25
  % Mortality at 48 Hrs.: 52.50%
  % Corrected Mortality at 48 Hrs.: 50.00%
Helicoverpa armigera [6]
  Total No. of dead insect at 72 Hrs.: 7.00
  % Mortality at 72 Hrs.: 70.00%
  % Corrected Mortality at 72 Hrs.: 70.00%
Spodoptera litura [7]
  Total No. of dead insect at 72 Hrs.: 5.00
Thrips [8]
  Total No. of dead insect at 48 Hrs.: 4.25
Aphid [9]
  Total No. of dead insect at 48 Hrs.: 60.00
Mite [10]
  % Mortality at 48 Hrs.: 32.50%
  Total No. of dead insect at 48 Hrs.: 32.50
  % Corrected Mortality at 48 Hrs.: 28.95%
Mealy Bug [11]
  % Mortality at 48 Hrs.: 60.00%
  Total No. of dead insect at 48 Hrs.: 60.00
  % Corrected Mortality at 48 Hrs.: 55.56%
Helicoverpa armigera [12]
  % Mortality at 72 Hrs.: 67.50%
  % Corrected Mortality at 72 Hrs.: 67.50%
Spodoptera litura [13]
  % Mortality at 72 Hrs.: 55.00%
  % Corrected Mortality at 72 Hrs.: 52.63%
Thrips [14]; 48 hrs after application
  Total No. of dead insect at 48 Hrs.: 42.50
Thrips [14]
  % Corrected Mortality at 48 Hrs.: 36.11%
[15]; Table 13, effect on plants, descriptive
  Phytotonic Effect: Trigger plant; also recorded: Boost chlorophyll
Spodoptera litura [16]; [21]
  mortality at 1 mL or g/L: 47.4%
Spodoptera litura [16]; [22]
  mortality at 1 mL or g/L: 50%
Thrips [17]; [23]
  mortality at 1 mL or g/L: 34.3%
Thrips [17]; [24]
  mortality at 1 mL or g/L: 42.5%
Aphid [18]; [23]
  mortality at 1 mL or g/L: 52.9%
Aphid [18]; [24]
  mortality at 1 mL or g/L: 60%

— patent publication US20250351832A1, “PHYTOCHEMICALS AS BIOPESTICIDES AND BIOSTIMULANTS” (KAY BEE BIO ORGANICS PVT. LTD., priority 2024, published 2025)
